# Assays:
# Format in all cases: cell-based
# [1] = test system: S. aureus ATCC 33591; test: MIC against drug-resistant bacteria, S. aureus ATCC 33591; settings: organism C = S. aureus ATCC 33591, methycillin resistant strain (MRSA)
# Experimental: (§1) Compounds according to this invention were screened for their in vitro activities against selected species of bacteria and fungi. The minimal inhibition concentration (MIC) of these compounds was determined using the National Committee for Clinical Laboratory Standards (NCCLS) broth microdilution assay in microtiter plates, as set forth in: (1) the guidelines of the National Committee for Clinical Laboratory Standards (NCCLS) Document M7-A4 (NCCLS, 1997); (2) the guidelines of the National Committee for Clinical Laboratory Standards (NCCLS) Document M11-A4 (NCCLS, 1997); and (3) the guidelines and reference method of the National Committee for Clinical Laboratory Standards (NCCLS) Document M27-T (NCCLS, 1995). For antifungal essays, the method recommended in Murray, PR., 1995 Manual of Clinical Microbiology (ASM Press, Washington, D.C.), was employed.
# (§2) Further, compounds (I) are effective against drug-resistant bacteria, as evidenced by the data in Table 2 below:
# (§3) ATCC 27660 and ATCC 33591 are methycillin resistant strains of S. aureus (MRSA's). ATCC 51559 is a vancomycin resistant strain of E. faecium (VRE). ATCC 12228 is a methycillin resistant strain of S. epidermis (MRSE). ATCC 51422 is a penicillin resistant strain of S. pneumoniae.
# [2] = test system: S. aureus ATCC 27660; test: MIC against drug-resistant bacteria, S. aureus ATCC 27660; settings: organism B = S. aureus ATCC 27660, methycillin resistant strain (MRSA)
# Experimental: as §1, §2, §3
# [3] = test system: S. pneumoniae ATCC 51422; test: MIC against drug-resistant bacteria, S. pneumoniae ATCC 51422; settings: organism E = S. pneumoniae ATCC 51422, penicillin resistant strain
# Experimental: as §1, §2, §3
# [4] = test system: S. epidermis ATCC 12228; test: MIC against drug-resistant bacteria, S. epidermis ATCC 12228; settings: organism D = S. epidermis ATCC 12228, methycillin resistant strain (MRSE)
# Experimental: as §1, §2, §3
# [5] = test system: E. faecium ATCC 51559; test: MIC against drug-resistant bacteria, E. faecium ATCC 51559; settings: organism A = E. faecium ATCC 51559, vancomycin resistant strain (VRE)
# Experimental: as §1, §2, §3
Structure (SMILES),Minimum Inhibitoty Concentration (MIC) [1],Minimum Inhibitoty Concentration (MIC) [2],Minimum Inhibitoty Concentration (MIC) [3],Minimum Inhibitoty Concentration (MIC) [4],Minimum Inhibitoty Concentration (MIC) [5]
Cn1cc(NC(=O)c2ccc3nc(-c4cc(NC(=O)c5cc6ccccc6cn5)cn4C)[nH]c3c2)cc1C(=O)NCCN1CCOCC1 [Compound I-31],+++ (MIC ≦4),+++ (MIC ≦4),+++ (MIC ≦4),+++ (MIC ≦4),+++ (MIC ≦4)
C[C@@H]1CN(CCNC(=O)c2ccc3nc(-c4cc(NC(=O)c5cc(NC(=O)c6cc7ccccc7cn6)cn5C)cn4C)[nH]c3c2)C[C@H](C)O1 [Compound I-29],+++ (MIC ≦4),+++ (MIC ≦4),+++ (MIC ≦4),+++ (MIC ≦4),+++ (MIC ≦4)
Cn1cc(NC(=O)c2ccc3nc(-c4cc(NC(=O)c5cc6ccccc6cn5)cn4C)[nH]c3c2)cc1C(=O)NCCN1CCCCC1 [Compound I-22],+++ (MIC ≦4),+++ (MIC ≦4),+++ (MIC ≦4),+++ (MIC ≦4),+++ (MIC ≦4)
Cn1cc(NC(=O)c2ccc(F)cc2F)cc1C(=O)Nc1cc(-c2nc3ccc(C(=O)NCCN4CCCCC4)cc3[nH]2)n(C)c1 [Compound I-21],+++ (MIC ≦4),+++ (MIC ≦4),+++ (MIC ≦4),+++ (MIC ≦4),+++ (MIC ≦4)
CCN(CC)CCNC(=O)c1ccc2nc(-c3cc(NC(=O)c4cc(NC(=O)c5cc6ccccc6cn5)cn4C)cn3C)[nH]c2c1 [Compound I-27],–,+++ (MIC ≦4),–,+++ (MIC ≦4),+++ (MIC ≦4)
Cn1cc(NC(=O)c2ccc(Cl)cc2F)cc1C(=O)Nc1cc(-c2nc3ccc(C(=O)NCCN4CCCCC4)cc3[nH]2)n(C)c1 [Compound I-15],+++ (MIC ≦4),+++ (MIC ≦4),+++ (MIC ≦4),+++ (MIC ≦4),+++ (MIC ≦4)
Cn1cc(NC(=O)c2ccc3nc(-c4cc(NC(=O)c5ccc(F)cc5F)cn4C)[nH]c3c2)cc1C(=O)NCCN1CCCCC1 [Compound I-35],+++ (MIC ≦4),+++ (MIC ≦4),+++ (MIC ≦4),+++ (MIC ≦4),+++ (MIC ≦4)
C[C@@H]1CN(CCNC(=O)c2ccc3nc(-c4cc(NC(=O)c5cc(NC(=O)c6sc7ccccc7c6Cl)cn5C)cn4C)[nH]c3c2)C[C@H](C)O1 [Compound I-26],"+ (MIC from 12 to 32, inclusive)",+++ (MIC ≦4),+++ (MIC ≦4),+++ (MIC ≦4),+++ (MIC ≦4)
CN(C)CCCNC(=O)c1ccc2nc(-c3cc(NC(=O)c4cc(NC(=O)c5cc6ccccc6cn5)cn4C)cn3C)[nH]c2c1 [Compound I-33],+++ (MIC ≦4),+++ (MIC ≦4),+++ (MIC ≦4),+++ (MIC ≦4),+++ (MIC ≦4)
CCOC(=O)c1ccc2nc(-c3cc(NC(=O)c4cc(NC(=O)c5ccc(F)cc5NCCN5CCOCC5)cn4C)cn3C)[nH]c2c1 [Compound I-16],–,"+ (MIC from 12 to 32, inclusive)",–,–,–
Cn1cc(NC(=O)c2sccc2Cl)cc1C(=O)Nc1cc(-c2nc3ccc(C(=O)NCCN4CCSCC4)cc3[nH]2)n(C)c1 [Compound I-38],+++ (MIC ≦4),+++ (MIC ≦4),+++ (MIC ≦4),+++ (MIC ≦4),+++ (MIC ≦4)
CCOC(=O)c1ccc2nc(-c3cc(NC(=O)c4cc(NC(=O)c5ccc(F)cc5NCCN5CCCCC5)cn4C)cn3C)[nH]c2c1 [Compound I-18],–,+++ (MIC ≦4),–,–,–
CCOC(=O)c1ccc2nc(-c3cc(NC(=O)c4cc(NC(=O)c5ccc(F)cc5NCCN5CCSCC5)cn4C)cn3C)[nH]c2c1 [Compound I-17],–,+++ (MIC ≦4),–,–,–
Cn1cc(NC(=O)c2ccc(Cl)cc2F)cc1C(=O)Nc1cc(-c2nc3ccc(C(=O)NCCN4CCOCC4)cc3[nH]2)n(C)c1 [Compound I-13],+++ (MIC ≦4),+++ (MIC ≦4),+++ (MIC ≦4),+++ (MIC ≦4),+++ (MIC ≦4)
COCn1cc(NC(=O)c2ccc3nc(-c4cc(NC(=O)c5sccc5Cl)cn4C)[nH]c3c2)cc1C(=O)NCCN1CCSCC1 [Compound I-34],+++ (MIC ≦4),–,–,+++ (MIC ≦4),–
CCN(CC)CCCNC(=O)c1ccc2nc(-c3cc(NC(=O)c4cc(NC(=O)c5cc6ccccc6cn5)cn4C)cn3C)[nH]c2c1 [Compound I-37],+++ (MIC ≦4),+++ (MIC ≦4),–,–,–
Cn1cc(NC(=O)c2ccc3nc(-c4cc(NC(=O)c5ccc(Cl)cc5F)cn4C)[nH]c3c2)cc1C(=O)NCCN1CCCCC1 [Compound I-28],–,+++ (MIC ≦4),–,+++ (MIC ≦4),+++ (MIC ≦4)
Cn1cc(NC(=O)c2sc3ccccc3c2Cl)cc1C(=O)Nc1cc(-c2nc3ccc(C(=O)NCCN4CCSCC4)cc3[nH]2)n(C)c1 [Compound I-23],++ (MIC between 4 and 12),+++ (MIC ≦4),+++ (MIC ≦4),+++ (MIC ≦4),+++ (MIC ≦4)
CCN(CC)CCNC(=O)c1ccc2nc(-c3cc(NC(=O)c4cc(NC(=O)c5sc6ccccc6c5Cl)cn4C)cn3C)[nH]c2c1 [Compound I-25],–,+++ (MIC ≦4),–,–,–
Cn1cc(NC(=O)c2cc3ccccc3cn2)cc1C(=O)Nc1cc(-c2nc3ccc(C(=O)NCCN4CCC(O)CC4)cc3[nH]2)n(C)c1 [Compound I-32],+++ (MIC ≦4),+++ (MIC ≦4),+++ (MIC ≦4),+++ (MIC ≦4),+++ (MIC ≦4)
CCN(CC)CCNC(=O)c1ccc2nc(-c3cc(NC(=O)c4cc(NC(=O)c5sccc5Cl)cn4C)cn3C)[nH]c2c1 [Compound I-40],+++ (MIC ≦4),+++ (MIC ≦4),+++ (MIC ≦4),+++ (MIC ≦4),+++ (MIC ≦4)
Cn1cc(NC(=O)c2ccc(F)cc2F)cc1C(=O)Nc1cc(-c2nc3ccc(C(=O)NCCN4CCSCC4)cc3[nH]2)n(C)c1 [Compound I-20],+++ (MIC ≦4),+++ (MIC ≦4),+++ (MIC ≦4),+++ (MIC ≦4),+++ (MIC ≦4)
Cn1cc(NC(=O)c2cc3ccccc3cn2)cc1C(=O)Nc1cc(-c2nc3ccc(C(=O)NCCN4CCSCC4)cc3[nH]2)n(C)c1 [Compound I-30],–,+++ (MIC ≦4),–,+++ (MIC ≦4),+++ (MIC ≦4)
Cn1cc(NC(=O)c2ccc(F)cc2F)cc1C(=O)Nc1cc(-c2nc3ccc(C(=O)NCCN4CCOCC4)cc3[nH]2)n(C)c1 [Compound I-19],+++ (MIC ≦4),+++ (MIC ≦4),+++ (MIC ≦4),+++ (MIC ≦4),+++ (MIC ≦4)
Cn1cc(NC(=O)c2sc3ccccc3c2Cl)cc1C(=O)Nc1cc(-c2nc3ccc(C(=O)NCCN4CCCCC4)cc3[nH]2)n(C)c1 [Compound I-24],–,+++ (MIC ≦4),–,–,–
Cn1cc(NC(=O)c2sccc2Cl)cc1C(=O)Nc1cc(-c2nc3ccc(C(=O)NCCN4CCCCC4)cc3[nH]2)n(C)c1 [Compound I-36],+++ (MIC ≦4),+++ (MIC ≦4),+++ (MIC ≦4),+++ (MIC ≦4),+++ (MIC ≦4)
